According to PubChem BioAssay (NCI):
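In this assay, cells in 96-well plates receive the compound at five concentrations for 48 hours. Endpoints are linearly interpolated between the surrounding concentrations. The concentration for full growth arrest is given as TGI.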

What was measured:
Experiment in all cases: inhibition of tumour cell growth, NCI panel, 48 h
PC-3 prostate = test system: PC-3 prostate
SK-MEL-2 melanoma = test system: SK-MEL-2 melanoma
EKVX NSCLC = test system: EKVX NSCLC
MALME-3M melanoma = test system: MALME-3M melanoma
DU-145 prostate = test system: DU-145 prostate
SF-295 CNS = test system: SF-295 CNS
HOP-92 NSCLC = test system: HOP-92 NSCLC
SNB-75 CNS = test system: SNB-75 CNS
SK-MEL-5 melanoma = test system: SK-MEL-5 melanoma
CCRF-CEM leukemia = test system: CCRF-CEM leukemia
TK-10 renal = test system: TK-10 renal
UACC-257 melanoma = test system: UACC-257 melanoma
IGROV1 ovarian = test system: IGROV1 ovarian
LOX IMVI melanoma = test system: LOX IMVI melanoma
KM12 colon = test system: KM12 colon
HT29 colon = test system: HT29 colon
M14 melanoma = test system: M14 melanoma
MCF7 breast = test system: MCF7 breast
RXF 393 renal = test system: RXF 393 renal
SF-268 CNS = test system: SF-268 CNS
HCT-116 colon = test system: HCT-116 colon
BT-549 breast = test system: BT-549 breast
NCI-H522 lung = test system: NCI-H522 lung
MDA-N = test system: MDA-N
SK-MEL-28 melanoma = test system: SK-MEL-28 melanoma
RPMI-8226 leukemia = test system: RPMI-8226 leukemia
SK-OV-3 ovarian = test system: SK-OV-3 ovarian
COLO 205 colon = test system: COLO 205 colon
A549 NSCLC = test system: A549 NSCLC
OVCAR-3 ovarian = test system: OVCAR-3 ovarian
SR leukemia = test system: SR leukemia
NCI-H460 lung = test system: NCI-H460 lung
UO-31 renal = test system: UO-31 renal
HCC-2998 colon = test system: HCC-2998 colon
HS 578T breast = test system: HS 578T breast
SN12C renal = test system: SN12C renal
OVCAR-4 ovarian = test system: OVCAR-4 ovarian
HCT-15 colon = test system: HCT-15 colon
ACHN renal = test system: ACHN renal
HL-60(TB) leukemia = test system: HL-60(TB) leukemia
NCI-H23 lung = test system: NCI-H23 lung
OVCAR-8 ovarian = test system: OVCAR-8 ovarian
UACC-62 melanoma = test system: UACC-62 melanoma
786-0 renal = test system: 786-0 renal
NCI/ADR-RES ovarian = test system: NCI/ADR-RES ovarian
MOLT-4 leukemia = test system: MOLT-4 leukemia
OVCAR-5 ovarian = test system: OVCAR-5 ovarian
K-562 leukemia = test system: K-562 leukemia
CAKI-1 renal = test system: CAKI-1 renal
MDA-MB-231 breast = test system: MDA-MB-231 breast
SW-620 colon = test system: SW-620 colon
HOP-62 NSCLC = test system: HOP-62 NSCLC
T-47D breast = test system: T-47D breast
A498 renal = test system: A498 renal
SF-539 CNS = test system: SF-539 CNS
U251 CNS = test system: U251 CNS
NCI-H226 lung = test system: NCI-H226 lung

SMILES: O=c1ccc2[n+]([O-])c3ccc(O)cc3oc-2c1
- TGI (PC-3 prostate): > 100 µM
- TGI (SK-MEL-2 melanoma): 31.5 µM
- TGI (EKVX NSCLC): > 100 µM
- TGI (MALME-3M melanoma): 18.3 µM
- TGI (DU-145 prostate): 30.8 µM
- TGI (SF-295 CNS): 21.6 µM
- TGI (HOP-92 NSCLC): > 100 µM
- TGI (SNB-75 CNS): > 40.7 µM
- TGI (SK-MEL-5 melanoma): 13.8 µM
- TGI (CCRF-CEM leukemia): > 73 µM
- TGI (TK-10 renal): > 85.2 µM
- TGI (UACC-257 melanoma): 26 µM
- TGI (IGROV1 ovarian): > 100 µM
- TGI (LOX IMVI melanoma): 13.8 µM
- TGI (KM12 colon): > 100 µM
- TGI (HT29 colon): 53.9 µM
- TGI (M14 melanoma): 25.4 µM
- TGI (MCF7 breast): 18.8 µM
- TGI (RXF 393 renal): > 100 µM
- TGI (SF-268 CNS): > 100 µM
- TGI (HCT-116 colon): > 100 µM
- TGI (BT-549 breast): 25.9 µM
- TGI (NCI-H522 lung): 36.6 µM
- TGI (MDA-N): 3.37 µM
- TGI (SK-MEL-28 melanoma): 22.6 µM
- TGI (RPMI-8226 leukemia): > 87 µM
- TGI (SK-OV-3 ovarian): > 100 µM
- TGI (COLO 205 colon): 30.1 µM
- TGI (A549 NSCLC): 20.6 µM
- TGI (OVCAR-3 ovarian): > 80.3 µM
- TGI (SR leukemia): > 64 µM
- TGI (NCI-H460 lung): 38.7 µM
- TGI (UO-31 renal): 8 µM
- TGI (HCC-2998 colon): > 100 µM
- TGI (HS 578T breast): > 54.1 µM
- TGI (SN12C renal): 36.7 µM
- TGI (OVCAR-4 ovarian): 97 µM
- TGI (HCT-15 colon): > 47.9 µM
- TGI (ACHN renal): > 37.7 µM
- TGI (HL-60(TB) leukemia): > 66.8 µM
- TGI (NCI-H23 lung): 11.4 µM
- TGI (OVCAR-8 ovarian): > 91.6 µM
- TGI (UACC-62 melanoma): 7.35 µM
- TGI (786-0 renal): 27.2 µM
- TGI (NCI/ADR-RES ovarian): 67.5 µM
- TGI (MOLT-4 leukemia): 57 µM
- TGI (OVCAR-5 ovarian): 56.6 µM
- TGI (K-562 leukemia): > 100 µM
- TGI (CAKI-1 renal): > 100 µM
- TGI (MDA-MB-231 breast): > 92.3 µM
- TGI (SW-620 colon): 48 µM
- TGI (HOP-62 NSCLC): 67 µM
- TGI (T-47D breast): > 100 µM
- TGI (A498 renal): > 100 µM
- TGI (SF-539 CNS): > 100 µM
- TGI (U251 CNS): > 100 µM
- TGI (NCI-H226 lung): > 66.8 µM
